Laboratory results reported in patent US12258328B2, “6-membered heteroaryl-containing aminopyridine compounds as EGFR inhibitors” (YUHAN CORPORATION, priority 2021, dated 2025).
Like-named read-outs stand apart in the source and are kept apart here.

Assays:
EGFR L858R/C797S = EGFR L858R/C797S (Homo sapiens, UniProt P00533, C797S/L858R); experiment: Biochemical EGFR kinase assay (Lance Ultra TR-FRET), double mutant L858R/C797S
In short: (§1)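 Step 1: compound in kinase buffer, 0.003–10 μM. Step 2: kinase reaction 1 h at room temperature. Step 4: TR-FRET read at 615/665 nm; IC50 calculated.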

EGFR L858R/T790M/C797S = EGFR L858R/T790M/C797S (Homo sapiens, UniProt P00533, C797S/L858R/T790M); experiment: Biochemical EGFR kinase assay (Lance Ultra TR-FRET), triple mutant L858R/T790M/C797S
Chain of EGFR L858R/T790M/C797S (P00533 25-1210 T790M/C797S/L858R): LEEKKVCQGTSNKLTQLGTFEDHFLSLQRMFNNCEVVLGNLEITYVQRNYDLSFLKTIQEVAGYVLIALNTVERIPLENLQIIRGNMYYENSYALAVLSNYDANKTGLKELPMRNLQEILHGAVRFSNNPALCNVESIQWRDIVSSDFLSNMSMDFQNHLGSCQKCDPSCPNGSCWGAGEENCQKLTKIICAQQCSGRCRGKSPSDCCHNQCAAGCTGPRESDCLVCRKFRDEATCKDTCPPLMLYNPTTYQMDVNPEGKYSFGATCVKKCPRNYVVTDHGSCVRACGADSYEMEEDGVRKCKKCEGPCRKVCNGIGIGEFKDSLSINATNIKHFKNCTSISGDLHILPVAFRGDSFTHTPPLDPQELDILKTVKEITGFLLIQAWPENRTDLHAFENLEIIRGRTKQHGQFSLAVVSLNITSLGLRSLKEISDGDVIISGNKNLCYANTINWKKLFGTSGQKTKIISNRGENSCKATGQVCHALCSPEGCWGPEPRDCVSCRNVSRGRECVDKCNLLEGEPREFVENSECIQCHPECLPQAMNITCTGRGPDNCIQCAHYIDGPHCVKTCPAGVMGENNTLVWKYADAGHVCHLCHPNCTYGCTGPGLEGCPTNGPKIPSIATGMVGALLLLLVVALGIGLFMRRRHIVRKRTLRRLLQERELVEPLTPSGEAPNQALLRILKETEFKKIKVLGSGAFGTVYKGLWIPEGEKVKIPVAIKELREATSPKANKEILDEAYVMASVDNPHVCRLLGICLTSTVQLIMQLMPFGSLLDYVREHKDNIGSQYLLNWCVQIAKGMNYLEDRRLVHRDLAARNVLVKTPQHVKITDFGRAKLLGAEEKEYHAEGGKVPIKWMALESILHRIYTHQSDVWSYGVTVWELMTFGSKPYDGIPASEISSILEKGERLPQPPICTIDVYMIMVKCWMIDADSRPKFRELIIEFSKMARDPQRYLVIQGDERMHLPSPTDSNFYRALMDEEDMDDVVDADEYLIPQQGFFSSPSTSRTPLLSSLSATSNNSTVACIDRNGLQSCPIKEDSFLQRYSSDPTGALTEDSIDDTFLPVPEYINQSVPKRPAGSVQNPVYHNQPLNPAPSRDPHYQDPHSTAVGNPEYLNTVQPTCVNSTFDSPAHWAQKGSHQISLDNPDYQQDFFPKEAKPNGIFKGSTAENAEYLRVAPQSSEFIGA
In short: as §1

EGFR del19/C797S = EGFR del19/C797S (Homo sapiens, UniProt P00533, C797S/DEL746-750); experiment: Biochemical EGFR kinase assay (Lance Ultra TR-FRET), double mutant del19/C797S
Chain of EGFR del19/C797S (P00533 with tags, fused parts or gaps DEL746-750/C797S): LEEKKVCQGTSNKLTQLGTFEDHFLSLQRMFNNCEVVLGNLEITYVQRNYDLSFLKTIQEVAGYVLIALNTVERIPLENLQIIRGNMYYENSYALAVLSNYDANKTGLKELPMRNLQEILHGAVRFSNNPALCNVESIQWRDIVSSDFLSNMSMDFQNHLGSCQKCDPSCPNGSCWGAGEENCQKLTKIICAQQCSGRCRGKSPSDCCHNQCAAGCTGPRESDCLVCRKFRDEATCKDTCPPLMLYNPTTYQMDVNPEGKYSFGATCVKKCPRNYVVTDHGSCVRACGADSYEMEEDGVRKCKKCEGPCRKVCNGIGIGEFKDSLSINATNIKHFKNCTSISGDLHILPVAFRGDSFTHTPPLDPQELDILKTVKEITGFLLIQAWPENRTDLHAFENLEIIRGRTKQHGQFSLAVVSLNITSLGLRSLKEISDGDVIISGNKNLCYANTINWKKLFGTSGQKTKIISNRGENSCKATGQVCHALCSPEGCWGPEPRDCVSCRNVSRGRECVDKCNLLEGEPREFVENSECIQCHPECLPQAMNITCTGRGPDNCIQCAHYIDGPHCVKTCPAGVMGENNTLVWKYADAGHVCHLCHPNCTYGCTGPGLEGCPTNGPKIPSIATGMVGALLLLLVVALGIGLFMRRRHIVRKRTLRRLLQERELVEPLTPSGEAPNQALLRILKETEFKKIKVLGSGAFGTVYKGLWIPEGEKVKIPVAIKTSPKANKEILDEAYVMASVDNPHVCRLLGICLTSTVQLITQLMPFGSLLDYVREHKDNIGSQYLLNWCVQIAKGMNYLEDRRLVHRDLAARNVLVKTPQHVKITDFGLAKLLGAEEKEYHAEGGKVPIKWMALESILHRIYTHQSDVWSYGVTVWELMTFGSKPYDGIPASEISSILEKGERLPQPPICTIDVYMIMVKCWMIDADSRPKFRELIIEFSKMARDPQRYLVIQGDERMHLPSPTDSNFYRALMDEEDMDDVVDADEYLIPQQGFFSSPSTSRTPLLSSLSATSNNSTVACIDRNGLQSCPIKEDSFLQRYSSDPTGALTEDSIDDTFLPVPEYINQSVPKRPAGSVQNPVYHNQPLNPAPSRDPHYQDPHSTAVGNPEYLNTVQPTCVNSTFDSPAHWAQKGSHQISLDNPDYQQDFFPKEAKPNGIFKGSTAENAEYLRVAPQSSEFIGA
In short: as §1

EGFR wildtype = EGFR wildtype (Homo sapiens, UniProt P00533); experiment: Biochemical EGFR kinase assay (Lance Ultra TR-FRET), wildtype
Chain of EGFR wildtype (P00533 25-1210): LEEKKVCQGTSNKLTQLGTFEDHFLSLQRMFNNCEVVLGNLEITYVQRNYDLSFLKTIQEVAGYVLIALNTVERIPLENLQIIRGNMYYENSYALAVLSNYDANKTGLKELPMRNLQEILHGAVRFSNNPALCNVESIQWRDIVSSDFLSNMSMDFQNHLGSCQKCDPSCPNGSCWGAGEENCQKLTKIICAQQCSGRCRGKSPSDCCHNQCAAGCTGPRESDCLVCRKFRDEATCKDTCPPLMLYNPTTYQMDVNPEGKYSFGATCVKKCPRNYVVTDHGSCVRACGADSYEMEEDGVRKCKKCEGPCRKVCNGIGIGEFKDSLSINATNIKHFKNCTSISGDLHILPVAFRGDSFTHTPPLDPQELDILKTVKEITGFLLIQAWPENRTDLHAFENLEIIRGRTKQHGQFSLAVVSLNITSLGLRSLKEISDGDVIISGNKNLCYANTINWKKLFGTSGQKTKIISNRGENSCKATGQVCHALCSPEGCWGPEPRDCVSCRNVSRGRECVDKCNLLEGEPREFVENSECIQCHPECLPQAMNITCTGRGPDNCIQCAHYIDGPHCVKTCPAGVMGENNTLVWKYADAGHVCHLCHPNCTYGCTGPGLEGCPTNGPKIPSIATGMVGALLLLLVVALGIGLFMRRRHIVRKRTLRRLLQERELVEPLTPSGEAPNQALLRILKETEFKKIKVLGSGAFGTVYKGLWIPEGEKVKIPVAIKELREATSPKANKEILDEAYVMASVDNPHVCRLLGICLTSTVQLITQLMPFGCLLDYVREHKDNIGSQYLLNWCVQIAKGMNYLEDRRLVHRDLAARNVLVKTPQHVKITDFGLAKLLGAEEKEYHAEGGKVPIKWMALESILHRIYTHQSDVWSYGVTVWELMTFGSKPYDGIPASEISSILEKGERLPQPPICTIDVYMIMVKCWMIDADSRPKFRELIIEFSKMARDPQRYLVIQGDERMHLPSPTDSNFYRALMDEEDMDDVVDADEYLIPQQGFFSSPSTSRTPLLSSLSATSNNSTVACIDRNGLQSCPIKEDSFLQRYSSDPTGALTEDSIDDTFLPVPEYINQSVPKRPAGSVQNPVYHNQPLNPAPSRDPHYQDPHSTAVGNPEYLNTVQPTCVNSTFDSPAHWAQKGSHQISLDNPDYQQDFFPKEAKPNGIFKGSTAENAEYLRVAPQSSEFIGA
In short: as §1

EGFR del19/T790M/C797S = EGFR del19/T790M/C797S (Homo sapiens, UniProt P00533, C797S/DEL746-750/T790M); experiment: Biochemical EGFR kinase assay (Lance Ultra TR-FRET), triple mutant del19/T790M/C797S
In short: as §1

[1] = IC50 L858R/C797S (nM) 100 μM ATP, 100 μM ATP
[2] = IC50 L858R/T790M/C797S (nM) 100 μM ATP, 100 μM ATP
[3] = Km ATP, read-out: IC50 L858R/T790M/C797S (nM) Km ATP
[4] = IC50 del19/C797S (nM) 100 μM ATP, 100 μM ATP
[5] = IC50 WT (nM) 100 μM ATP, 100 μM ATP
[6] = Km ATP, read-out: IC50 WT (nM) Km ATP
[7] = IC50 del19/T790M/C797S (nM) 100 μM ATP, 100 μM ATP
[8] = Km ATP, read-out: IC50 del19/T790M/C797S (nM) Km ATP
[9] = ATP at Km, read-out: IC50 L858R/C797S, Km ATP
[10] = ATP at Km, read-out: IC50 L858R/T790M/C797S, Km ATP
[11] = IC50 L858R/T790M/C797S, 100 μM ATP
[12] = ATP at Km, read-out: IC50 del19/C797S, Km ATP
[13] = ATP at Km, read-out: IC50 WT, Km ATP
[14] = ATP at Km, read-out: IC50 del19/T790M/C797S, Km ATP
[15] = IC50 del19/T790M/C797S, 100 μM ATP
[16] = Km ATP, read-out: IC50 L858R/C797S (nM) Km ATP
[17] = Km ATP, read-out: IC50 del19/C797S (nM) Km ATP

Chain of EGFR L858R/C797S (P00533 25-1210 C797S/L858R): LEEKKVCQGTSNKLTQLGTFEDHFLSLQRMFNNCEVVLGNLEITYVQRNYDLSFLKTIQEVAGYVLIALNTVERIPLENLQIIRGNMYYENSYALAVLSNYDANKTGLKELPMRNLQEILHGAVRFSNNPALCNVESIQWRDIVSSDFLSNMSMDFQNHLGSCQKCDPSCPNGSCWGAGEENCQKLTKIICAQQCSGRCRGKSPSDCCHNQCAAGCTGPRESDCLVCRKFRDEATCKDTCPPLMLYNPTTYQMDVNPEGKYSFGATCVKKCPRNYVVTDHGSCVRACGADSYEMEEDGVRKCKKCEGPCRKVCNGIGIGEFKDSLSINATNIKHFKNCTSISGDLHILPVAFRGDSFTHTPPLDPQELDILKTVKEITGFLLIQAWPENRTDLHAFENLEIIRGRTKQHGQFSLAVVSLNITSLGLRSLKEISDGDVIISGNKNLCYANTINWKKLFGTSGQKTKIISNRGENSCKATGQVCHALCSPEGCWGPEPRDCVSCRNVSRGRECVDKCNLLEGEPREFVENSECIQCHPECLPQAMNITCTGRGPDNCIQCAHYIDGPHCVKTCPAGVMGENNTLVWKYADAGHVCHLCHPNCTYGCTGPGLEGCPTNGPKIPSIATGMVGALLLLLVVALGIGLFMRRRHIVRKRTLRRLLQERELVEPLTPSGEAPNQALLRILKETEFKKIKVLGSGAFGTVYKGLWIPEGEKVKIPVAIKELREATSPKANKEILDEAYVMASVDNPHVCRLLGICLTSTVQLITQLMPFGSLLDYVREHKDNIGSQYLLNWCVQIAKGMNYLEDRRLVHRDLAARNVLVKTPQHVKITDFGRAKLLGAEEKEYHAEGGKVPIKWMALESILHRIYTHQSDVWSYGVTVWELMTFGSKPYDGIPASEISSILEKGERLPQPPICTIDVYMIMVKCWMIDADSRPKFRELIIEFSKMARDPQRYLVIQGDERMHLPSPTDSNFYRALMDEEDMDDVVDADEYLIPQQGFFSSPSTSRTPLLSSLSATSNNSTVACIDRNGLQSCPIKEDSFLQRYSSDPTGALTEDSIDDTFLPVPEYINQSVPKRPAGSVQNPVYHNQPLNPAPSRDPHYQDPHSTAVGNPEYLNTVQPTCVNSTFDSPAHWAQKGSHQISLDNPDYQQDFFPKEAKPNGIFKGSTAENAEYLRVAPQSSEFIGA

Structure (SMILES) | IC50 (EGFR L858R/C797S; [1]) [nM] | IC50 (EGFR L858R/T790M/C797S; [2]) [nM] | IC50 (EGFR L858R/T790M/C797S; [3]) [nM] | IC50 (EGFR del19/C797S; [4]) [nM] | IC50 (EGFR wildtype; [5]) [nM] | IC50 (EGFR wildtype; [6]) [nM] | IC50 (EGFR del19/T790M/C797S; [7]) [nM] | IC50 (EGFR del19/T790M/C797S; [8]) [nM] | IC50 (EGFR L858R/C797S; [9]) [nM] | IC50 (EGFR L858R/C797S; IC50 L858R/C797S, 100 μM ATP) [nM] | IC50 (EGFR L858R/T790M/C797S; [10]) [nM] | IC50 (EGFR L858R/T790M/C797S; [11]) [nM] | IC50 (EGFR del19/C797S; [12]) [nM] | IC50 (EGFR del19/C797S; IC50 del19/C797S, 100 μM ATP) [nM] | IC50 (EGFR wildtype; [13]) [nM] | IC50 (EGFR wildtype; IC50 WT, 100 μM ATP) [nM] | IC50 (EGFR del19/T790M/C797S; [14]) [nM] | IC50 (EGFR del19/T790M/C797S; [15]) [nM] | IC50 (EGFR L858R/C797S; [16]) [nM] | IC50 (EGFR del19/C797S; [17]) [nM]
CC(C)(O)c1ccc(-c2cnc(Nc3ccnc(-c4cnn(S(=O)(=O)C5CC5)c4)n3)cc2N[C@H]2CC[C@@H](C(C)(C)O)CC2)nn1 [Example 88, 2-(6-(6-((2-(1-(Cyclopropylsulfonyl)-1H-pyrazol-4-yl)pyrimidin-4-yl)amino)-4-(((1s,4s)-4-(2-hydroxypropan-2-yl)cyclohexyl)amino)pyridin-3-yl)pyridazin-3-yl)propan-2-ol] | 31.1 | 0.4 | 0.1 | 2.2 | > 10000 | 15.3 | 4.9 | 0.4 | – | – | – | – | – | – | – | – | – | – | – | –
O=S(=O)(C1CC1)n1cc(-c2nccc(Nc3cc(N[C@H]4CC[C@@H](NCC(F)F)CC4)c(-c4cccc(F)n4)cn3)n2)cn1 [Example 275, N^6′-(2-(1-(Cyclopropylsulfonyl)-1H-pyrazol-4-yl)pyrimidin-4-yl)-N^4′-((1s,4s)-4-((2,2-difluoroethyl)amino)cyclohexyl)-6-fluoro-[2,3′-bipyridine]-4′,6′-diamine] | – | – | – | – | – | – | – | – | 4.1 | 11.4 | 0.7 | 1.2 | 2.5 | 2.6 | 18.5 | > 10000 | 0.9 | 1.1 | – | –
CN1CCC(Oc2ccc(-c3cnc(Nc4ccnc(-c5cnn(S(=O)(=O)C6CC6)c5)n4)cc3N[C@H]3CC[C@@](C)(O)CC3)nn2)CC1 [Example 269, (1s,4s)-4-((2-((2-(1-(Cyclopropylsulfonyl)-1H-pyrazol-4-yl)pyrimidin-4-yl)amino)-5-(6-((1-methylpiperidin-4-yl)oxy)pyridazin-3-yl)pyridin-4-yl)amino)-1-methylcyclohexan-1-ol] | – | – | – | – | – | – | – | – | 0.1 | – | 0.1 | – | 0.4 | – | 2.6 | – | 0.1 | – | – | –
CC(F)(F)c1ccc(-c2cnc(Nc3ccnc(-c4cnn(S(=O)(=O)C5CC5)c4)n3)cc2N[C@H]2CC[C@@](C)(O)CC2)nc1 [Example 292, (1s,4s)-4-((6′-((2-(1-(Cyclopropylsulfonyl)-1H-pyrazol-4-yl)pyrimidin-4-yl)amino)-5-(1,1-difluoroethyl)-[2,3′-bipyridin]-4′-yl)amino)-1-methylcyclohexan-1-ol] | – | – | – | – | – | – | – | – | 4.4 | 19.1 | 0.6 | 1.1 | 1.4 | 9.8 | 8.9 | 5170 | 0.6 | 2.6 | – | –
CN1CCC(Oc2ccc(-c3cnc(Nc4ccnc(-c5cnn(S(=O)(=O)C6CC6)c5)n4)cc3N[C@H]3CC[C@@H](F)CC3)nn2)CC1 [Example 270, N^2-(2-(1-(Cyclopropylsulfonyl)-1H-pyrazol-4-yl)pyrimidin-4-yl)-N^4-((1s,4s)-4-fluorocyclohexyl)-5-(6-((1-methylpiperidin-4-yl)oxy)pyridazin-3-yl)pyridine-2,4-diamine] | – | – | – | – | – | – | – | – | 1.1 | – | 0.1 | – | 3.2 | – | 36 | – | 0.3 | – | – | –
CN(C)CCOc1ccc(-c2cnc(Nc3ccnc(-c4cnn(S(=O)(=O)C5CC5)c4)n3)cc2N[C@H]2CC[C@@H](C(C)(C)O)CC2)nc1 [Example 210, 2-((1s,4s)-4-((6′-((2-(1-(Cyclopropylsulfonyl)-1H-pyrazol-4-yl)pyrimidin-4-yl)amino)-5-(2-(dimethylamino)ethoxy)-[2,3′-bipyridin]-4′-yl)amino)cyclohexyl)propan-2-ol] | – | – | – | – | – | – | – | – | 0.1 | 1.8 | 0.2 | 0.3 | 0.3 | 0.5 | 0.6 | 426 | 0.3 | 0.4 | – | –
CC(C)(O)c1ccc(-c2cnc(Nc3ccnc(-c4cnn(S(=O)(=O)C5CC5)c4)n3)cc2N[C@H]2CC[C@@H](CO)CC2)nn1 [Example 87, 2-(6-(6-((2-(1-(Cyclopropylsulfonyl)-1H-pyrazol-4-yl)pyrimidin-4-yl)amino)-4-(((1s,4s)-4-(hydroxymethyl)cyclohexyl)amino)pyridin-3-yl)pyridazin-3-yl)propan-2-ol] | 4.7 | 0.1 | 0.1 | 0.5 | 992 | 2.2 | 5.9 | 0.1 | – | – | – | – | – | – | – | – | – | – | 0.6 | 0.4
CN(C)C[C@H]1CC[C@@H](Nc2cc(Nc3ccnc(-c4cnn(S(=O)(=O)C5CC5)c4)n3)ncc2-c2ccc(C(C)(C)O)nn2)CC1 [Example 89, 2-(6-(6-((2-(1-(Cyclopropylsulfonyl)-1H-pyrazol-4-yl)pyrimidin-4-yl)amino)-4-(((1s,4s)-4-((dimethylamino)methyl)cyclohexyl)amino)pyridin-3-yl)pyridazin-3-yl)propan-2-ol] | 3.9 | 0.1 | 0.1 | 0.1 | 1640 | 2.7 | 0.1 | 0.1 | – | – | – | – | – | – | – | – | – | – | 0.2 | 0.3
CS(=O)(=O)c1ccc(-c2cnc(Nc3ccnc(-c4cnn(S(=O)(=O)C5CC5)c4)n3)cc2N[C@H]2CC[C@@H](NCCF)CC2)nc1 [Example 157, N^6′-(2-(1-(Cyclopropylsulfonyl)-1H-pyrazol-4-yl)pyrimidin-4-yl)-N^4′-((1s,4s)-4-((2-fluoroethyl)amino)cyclohexyl)-5-(methylsulfonyl)-[2,3′-bipyridine]-4′,6′-diamine] | – | – | – | – | – | – | – | – | 0.8 | 11.2 | 0.1 | 0.1 | 0.8 | 0.6 | 6.9 | 2930 | 0.1 | 0.1 | – | –
CC(C)(O)c1ccc(-c2cnc(Nc3ccnc(-c4cnn(S(=O)(=O)C5CC5)c4)n3)cc2N[C@H]2CC[C@@](C)(O)CC2)nn1 [Example 86, (1s,4s)-4-((2-((2-(1-(Cyclopropylsulfonyl)-1H-pyrazol-4-yl)pyrimidin-4-yl)amino)-5-(6-(2-hydroxypropan-2-yl)pyridazin-3-yl)pyridin-4-yl)amino)-1-methylcyclohexan-1-ol] | 11.4 | 0.2 | 0.1 | 0.4 | 1480 | 3.6 | 1.6 | 0.2 | – | – | – | – | – | – | – | – | – | – | 0.4 | 0.3
O=S(=O)(C1CC1)n1cc(-c2nccc(Nc3cc(N[C@H]4CC[C@@H](CCO)CC4)c(-c4ccc(C(F)F)cn4)cn3)n2)cn1 [Example 94, 2-((1s,4s)-4-((6′-((2-(1-(Cyclopropylsulfonyl)-1H-pyrazol-4-yl)pyrimidin-4-yl)amino)-5-(difluoromethyl)-[2,3′-bipyridin]-4′-yl)amino)cyclohexyl)ethan-1-ol] | 170 | – | 0.9 | 13.3 | > 10000 | 7.2 | 4.4 | 2.7 | – | – | – | – | – | – | – | – | – | – | 6 | 3.9
